Measured values from patent US20130101972A1, “METHODS FOR REDUCING RISK” (SANOFI, priority 2009, published 2013).

Key:
Assay type in all cases: in vivo, human
patients with AF/AFL = assay: Pooled safety analysis of 5 controlled AF/AFL clinical studies, dronedarone 400 mg BID versus placebo
From the text: (§1) The safety of dronedarone has been evaluated in a clinical development program that included, as of 12 Mar. 2008, a total of 8276 treated patients/healthy subjects in 55 completed studies. Of these, 4794 patients/healthy subjects received dronedarone.
Patients with the claimed indication of AF/AFL were included in 5 controlled clinical studies representing 88% (6285 patients) of the exposed patient population (7109 patients). Other patient populations, representing 14% (1028 patients) of the exposed patient population, were included in 13 clinical studies in patients with other cardiac conditions and patients with renal and hepatic impairment.
The safety profile of dronedarone 400 mg BID is derived from analysis of the 3282 patients in the 5 AF/AFL studies who were treated with dronedarone 400 mg BID and the 2875 who received placebo. The mean duration of exposure across the 5 studies in the dronedarone 400 mg BID group was 13.5 months, representing total exposure of 3684 patient-years. In the ATHENA study, the maximum follow-up was 30 months.
Discontinuation due to adverse reactions occurred in 11.8% of patients in the dronedarone 400 mg BID group and 7.7% in the placebo-treated group. The most common adverse events causing discontinuation of therapy with dronedarone 400 mg BID were gastrointestinal disorders (3.2% of patients versus 1.8% in the placebo group).

[1] = tested on: patients with severe heart failure; assay: ANDROMEDA study, placebo-controlled, in patients with left ventricular dysfunction hospitalized with symptomatic HF; conditions: versus placebo, patients with severe heart failure requiring recent hospitalization or referral
Experimental: The present invention relates to the following identified and potential risk of dronedarone: mortality in patients with severe heart failure (HF) during treatment. The study referred to as ANDROMEDA was conducted in 627 patients with left ventricular dysfunction, hospitalized with symptomatic HF, requiring treatment with a diuretic, who have had within the last month at least 1 episode of dyspnea or fatigue at rest, or on slight exertion. […] The study was stopped prematurely due to an observed imbalance of deaths in the dronedarone group [n=25 versus 12 (placebo), p=0.027]. The main reason for death was worsening heart failure. Clinical judgment of the physician should guide the management plan of each patient based on individual benefit/risk assessment.

[2] = tested on: patients with atrial fibrillation (AF) or atrial flutter (AFL) or a history of AF or AFL; assay: Clinical efficacy in patients with AF or AFL: cardiovascular hospitalization; conditions: 400 mg twice daily (BID)
From the text: as §1

SMILES: CCCCc1oc2ccc(NS(C)(=O)=O)cc2c1C(=O)c1ccc(OCCCN(CCCC)CCCC)cc1 [dronedarone, 2-n-butyl-3-[4-(3-di-n-butylaminopropoxy)benzoyl]-5-methylsulfonamido-benzofuran]
- Most frequent investigation abnormalities (patients with AF/AFL; dronedarone 400 mg BID): QT prolongation and increase in serum creatinine
- Discontinuation due to adverse reactions (patients with AF/AFL; dronedarone 400 mg BID group, 5 AF/AFL studies, placebo 7.7%): 11.8 % of patients
- Most frequent clinical adverse reactions (patients with AF/AFL; dronedarone 400 mg BID, 5 studies): diarrhea, nausea and vomiting, fatigue, asthenia, bradycardia, and rashes
- Gastrointestinal disorders causing discontinuation of therapy (most common adverse events causing discontinuation) (patients with AF/AFL; dronedarone 400 mg BID, placebo 1.8%): 3.2 % of patients
- Effect of intrinsic factors (race, gender, age) on incidence of any treatment-emergent adverse events (patients with AF/AFL; subgroup assessment): did not suggest any excess of adverse events in a particular subgroup
- Change in serum creatinine (patients with AF/AFL; within a week, does not reflect a change in underlying renal function): small change in serum creatinine
- Increase in mortality [1]: greater than two-fold increase in mortality
- Reduction of the risk of cardiovascular hospitalization [2]: effective for reduction of the risk of cardiovascular hospitalization
